Data taken from ChEMBL document CHEMBL6092215, “A Prostate-Specific Membrane Antigen-Targeting Small Molecule-Drug Conjugate Strategy to Overcome the Hematological Toxicity of Olaparib” (J Med Chem, 2024).
Calls of active or inactive are those of the source. The rule behind the calls is not given here.

What was measured:
[1] = Subacute toxicity in male ICR mouse assessed as decrease in hematocrit level at 100 mg/kg, po administered via gavage for 30 days by blood routine test relative to control; type: organism-based; design: scale not given: the % may be the effect or the level left; conditions: in vivo, 720 h, time 30 day
[2] = Antiproliferative activity against PSMA negative human RWPE-1 cells assessed as effect on cell viability incubated for 72 hrs by MTT assay; type: toxicity, cell-based; conditions: RWPE-1 cells (PSMA negative)
PC-3 = test: Antiproliferative activity against PSMA negative human PC-3 cells assessed as effect on cell viability incubated for 72 hrs by MTT assay; type: functional
[3] = Drug uptake in PSMA positive human 22Rv1 cells at 10 uM measured after 1 to 6 hrs by LC-MS/MS analysis; type: ADME, cell-based; conditions: cwr22r, time 1-6 hrs
[4] = Toxicity in male BALB/c nude mouse xenografted with human 22Rv1 cells assessed as decrease in hemoglobin at 100 mg/kg administered via gavage by routine blood test; type: organism-based; conditions: in vivo, po
[5] = Subacute toxicity in male ICR mouse assessed as decrease in red blood cells at 100 mg/kg, po administered via gavage for 30 days by blood routine test relative to control; type: organism-based; design: scale not given: the % may be the effect or the level left; conditions: in vivo, 720 h, time 30 day
CWR22R [6] = test: Antitumor activity against human 22Rv1 cells xenografted in male BALB/c nude mouse at 100 mg/kg administered via gavage; type: functional, organism-based
[7] = Subacute toxicity in male ICR mouse assessed as decrease in hemoglobin level at 100 mg/kg, po administered via gavage for 30 days by blood routine test relative to control; type: organism-based; design: scale not given: the % may be the effect or the level left; conditions: in vivo, 720 h, time 30 day
CWR22R [8] = test: Antiproliferative activity against human 22Rv1 cells assessed as reduction in cell viability at 125 uM in presence of DUPA; type: functional, cell-based
CWR22R [9] = test: Antiproliferative activity against human 22Rv1 cells with high PSMA expression assessed as effect on cell viability incubated for 72 hrs by MTT assay; type: functional, cell-based; conditions: 22Rv1, 72 h
[10] = Subacute toxicity in male ICR mouse assessed as decrease in lymphocytes level at 100 mg/kg, po administered via gavage for 30 days by blood routine test relative to control; type: organism-based; design: scale not given: the % may be the effect or the level left; conditions: in vivo, 720 h, time 30 day
CWR22R [11] = test: Induction of DNA damage in human 22Rv1 cells assessed as increase in number of gamma-H2AX foci at 100 uM incubated for 12 hrs by DAPI staining based immunofluorescence analysis; type: functional, cell-based
[12] = Subacute toxicity in male ICR mouse assessed as decrease in body weight at 100 mg/kg, po administered via gavage for 30 days relative to control; type: organism-based; design: scale not given: the % may be the effect or the level left; conditions: in vivo, 720 h, time 30 day
[13] = Subacute toxicity in male ICR mouse assessed as decrease in WBC level at 100 mg/kg, po administered via gavage for 30 days by blood routine test relative to control; type: organism-based; design: scale not given: the % may be the effect or the level left; conditions: in vivo, 720 h, time 30 day
[14] = Toxicity in male BALB/c nude mouse xenografted with human 22Rv1 cells assessed as decrease in red blood cells at 100 mg/kg administered via gavage by routine blood test; type: organism-based; conditions: in vivo, po
[15] = Toxicity in male BALB/c nude mouse xenografted with human 22Rv1 cells assessed as decrease in body weight at 100 mg/kg administered via gavage; type: organism-based; conditions: in vivo, po
[16] = Toxicity in male BALB/c nude mouse xenografted with human 22Rv1 cells assessed as decrease in granulocytes at 100 mg/kg administered via gavage by routine blood test; type: organism-based; conditions: in vivo, po
[17] = Toxicity in male BALB/c nude mouse xenografted with human 22Rv1 cells assessed as decrease in lymphocytes at 100 mg/kg administered via gavage by routine blood test; type: organism-based; conditions: in vivo, po
[18] = Drug uptake in PSMA negative human PC-3 cells at 10 uM measured after 1 to 6 hrs by LC-MS/MS analysis; type: ADME, cell-based; conditions: pc-3, 10 µM, time 1-6 hrs
CWR22R [19] = test: Antitumor activity against human 22Rv1 cells xenografted in male BALB/c nude mouse assessed as tumor growth inhibition at 100 mg/kg administered via gavage relative to control; type: functional; conditions: 22Rv1, po, read-out: TGI
LNCaP = test: Antiproliferative activity against human LNCaP cells with high PSMA expression assessed as effect on cell viability incubated for 72 hrs by MTT assay; type: functional, cell-based
[20] = Subacute toxicity in male ICR mouse assessed as decrease in neutrophil level at 100 mg/kg, po administered via gavage for 30 days by blood routine test relative to control; type: organism-based; design: scale not given: the % may be the effect or the level left; conditions: in vivo, 720 h, time 30 day

In the case of `O=C(c1cc(Cc2n[nH]c(=O)c3ccccc23)ccc1F)N1CCN(C(=O)C2CC2)CC1` [OLAPARIB], the Activity [1] is reported as 12.82%, the CC50 at 72 h [2] is reported as 85.5 µM and the CC50 (PC-3) is reported as 91.5 µM. The Drug uptake [3] was “Active”, the Activity [4] was “Toxic” and the Activity [5] was 15.73%. For the same compound, the Activity (CWR22R [6]) was “Active”, the Activity [7] was 11.69% and the Activity (CWR22R [8]) was “Active; Drug Mode Of Action Appears To Be Independent Of Binding To Psma Receptor”. The IC50 (CWR22R [9]) was 61.6 µM, the Activity [10] was 32.71% and the Activity (CWR22R [11]) was “Active”. For the same compound, the Activity [12] was 8%, the Activity [13] was 28.12% and the Activity [14] was “Toxic”. For the same compound, the Activity [15] was “Non-toxic”, the Activity [16] was “Toxic” and the Activity [17] was “Toxic”. The Drug uptake [18] was “Active”, the inhibition in vivo at 100 mg/kg (CWR22R [19]) was 61% and the IC50 (LNCaP) was 56.5 µM. It also gave an Activity [20] of 10.4%.
